Values quoted from earlier work as cited in US5364629A, “Device and method for enhanced administration of physostigmine” (priority 1991, dated 1994).

Columns and labels:
[1] = American Journal of Psychiatry, July 1979
[2] = tablets
[3] = Davis, et al, Science, Volume 201, p. 272 (1978)
[4] = systemic use
[5] = early observation, myasthenia gravis background

Question: Which results are given for `CNC(=O)Oc1ccc2c(c1)[C@]1(C)CCN(C)[C@@H]1N2C` [Physostigmine, physostigmine]?
Answer: effect on tardive dyskinesia [1]: positive: therapeutic effect on tardive dyskinesia; drug blood levels for multiple oral doses [2]: ranging from a maximum above the required level (and possibly in the toxic range) to a minimum which may be below the effective dose; retrieval of information from long-term memory [3]: retrieval of information from long-term memory was also improved; storage of information into long-term memory [3]: significantly enhanced storage of information into long-term memory; therapeutic window [4]: narrow therapeutic window; strength of muscular contraction [5]: increased strength of muscular contraction
